Experimental data: patent US9926529B2, “Derivation of neural stem cells and dopaminergic neurons from human pluripotent stem cells” (International Stem Cell Corporation, priority 2012, dated 2018)

Assays:
[1] = test system: hPSC-NSCs; experiment: Percentage of TH positive cells produced by chemical treatment; type: cell-based, human; settings: chemical treatment 2.5 μM for two weeks
Procedure: The method specifically involved treating both hESC-H9-NSCs (Invitrogen) and hPSC-NSCs with Purmorphamine (2 μM) and FGF8 (100 ng/mL) in NB medium [NeuroBasal medium, 1× GlutaMAX, 1× N2/B27 Supplement (Invitrogen)] for 7 days. After 7 days of Purmorphamine and FGF8 treatment, the NSCs were dissociated with Accutase (Sigma) and plated 20,000 cells/mL into Matrigel coated 96 well plates and treated with small molecule library (Torcris 1120 Biologically Active Compounds) at 2.5 μM final concentration for two weeks (FIG. 6A). Two weeks after treatment with small molecules, all wells were visually observed and scored based on neurite density and dopamine release. For measuring neurite density, cells were fixed with 4% paraformaldehyde and phase contrast images were acquired using Cellavista Cell Imaging System (Roche Applied Science) from randomly selected fields. Neurite density was measured using the Cellavista density software image processing program. Each experimental condition was done in duplicate wells, and at least three independent experiments were conducted to acquire the final results.
Conditioned medium from the top neurite inducers (Table 1) (wells containing the highest density of neurites compare to control 0.1% DMSO treated) were collected and analyzed using a dopamine ELISA assay (Cosmo Bio). Conditioned medium was collected from samples containing 50,000 cells per well and centrifuged at 3000 RPM to remove cell debris. Supernatant was then collected and analyzed for quantitative determination of dopamine using a commercial dopamine ELISA assay kit (CusaCosmo Bio). Data analysis was performed using the microtiter plate reader (BIO-TEK Synergy 2). The results presented are from three independent experiments (n=3) and represented as mean±standard error of mean (s.e.m.) and statistical analysis was performed using the two-tailed Student's t-test with a confidence level of 95% (α=0.05) with statistical significance of P<0.05. Additionally, total RNA from each well were collected and analyze by RT-PCR for expression of TuJ1, MAP2, TH, GRK2, EN1, DAT, AADC, PAX2, NURR1, PITX3 and LMX1B from hPSC-NSCs (Table 2). […] Analysis of the ELISA data indicated the top small molecule neurite inducers produced higher levels of dopamine than control non-treated cells (1.5 ng/mL). […] The percentages of TH positive cells produced by chemical treatment with Kenpaullone (33%), Guggulsterone (35%), Kynurenic Acid (19%), Immedthridine Dihydrobromide (21%), and Dimaprit Dihydrochloride (18%) were higher than 15% of TH positive cells obtained from hPSC-NSCs differentiated for ≥1 month using a standard dopaminergic differentiation medium (BDNF 20 ng/mL, GDNF 20 ng/mL, cAMP 200 μM, Abscorbic Acid 200 μM, TGFβ3 2 ng/mL and DAPT).

[2] = test system: hPSC-derived DA neurons; experiment: Microelectrode array (MEA) recordings of GS-treated neurons; type: cell-based, human; settings: day 95 of differentiation, 2.5 μM guggulsterone
Procedure: Extracellular voltage recordings from cultured hPSC-derived DA neurons were made on day 95 of differentiation in NB medium [NeuroBasal medium, 1× GlutaMAX, 1× N2/B27 Supplement (Invitrogen)] supplemented with 2.5 μM guggulsterone at 37° C. using a Muse microelectrode array (MEA) system (Axion Biosystems). The surface of the MEA dishes contained an 8×8 grid (64 electrodes total) of 30 μm diameter round extracellular electrodes composed of nanoporous platinum, with 200 μm inter-polar spacing.
MEA dishes were sterilized by rinsing 3 times in sterile deionized water, once in 70% ethanol and once in 100% ethanol. Dishes were then capped and inverted in a covered petri dish, and baked at 50° C. for 4-5 hr. A polyethyleneimine (PEI) base coating was deposited by adding […] of filtered (0.22 μm filter) 0.1% PEI in sodium borate buffer (15 mM; pH 8.4) to each dish and incubating at room temperature for 1 hr. Immediately following aspiration of the PEI solution, dishes were washed 4× with 1 ml deionized water, and air-dried overnight in a tissue culture hood. […]
Voltage data were sampled simultaneously on all electrodes at 12.5 kHz with a hardware filter bandwidth of 200-5000 Hz, and saved to computer with AxIS software (Axion Biosystems). […] For spike raster plots and inter-spike interval histograms, time-stamps of detected spikes were exported to Neuroexplorer (NEX Technologies). […]

C/C=C1\C(=O)C[C@H]2[C@@H]3CCC4=CC(=O)CC[C@]4(C)[C@H]3CC[C@]12C [Guggulsterone]
percentage of TH positive cells [1]: 35% | fraction of the 64 total MEA electrodes showing moderate activity (>5 spikes/min) [2]: Approximately one third
